From patent US20100179098A1, “FUROST-5-ENE-3, 22, 26-TRIOL GLYCOSIDE COMPOUND FOR PREVENTING AND TREATMENT CANCER” (priority 2006, published 2010)
Where two headings read alike, the source gives them in different places.

How the values were obtained:
GP7TB cells [1] = experiment: Growth inhibition (cell number), GP7TB; type: cell-based, rat; details: for Amount of Cells: GP7TB, mean of triplicate; for IC50: Rattus norvegicus, GP7TB cells, read-out: 50% inhibition concentration (IC50)
Method: Rat liver cancer cell line GP7TB and human liver cancer cell line Huh-7 and HepG2 at 10^4 cells each were seeded in individual wells of a 96-well cultural plate. After overnight incubation, different concentrations of the extracts were added therein for 24 hours. Subsequently, the medium was discarded, and the medium with 20 μl/ml of MTS was added for 1 hour. Since MTS reagent contains 3-(4,5-dimethylhiazol-2-yl)-5-(3-carboxymethoxyphenyl)-2-(4-sulfophenyl)-2H-tetrazolium, which could be metabolized by NADH or NADPH dehydrogenase in living cells to a formazan product, cellular survival rates could be estimated from different readings at 490 nm.
The experiments were performed in triplicate and the results were performed by average calculation.

Liver, Hep 3B = experiment: alamarBlue cancer cell inhibition, Hep 3B; type: cell-based; details: 72 hours
Method: (§1) Each suspension of various cancer cell lines was inoculated in a 96-well cultural plate and incubated at 37° C. under 5% carbon dioxide for 24 hours. Then, 100 μL of medium and 2 μl of different concentrations (100, 10, 1, 0.1 and 0.01 μM) of dichotomin (PK-22-1) were added therein. In addition, the cancer cells treated with a control drug, mitomycin, were incubated and treated in the same manner. After 72 hours of incubation, 20 μl of alamarBlue reagent was added into each well and the cells were incubated for another 6 hours. Cell densities were detected with a fluorescence detector, GENios equipped with a microreader, using an exciting wavelength of 530 nm and an emission wavelength of 590 nm. The IC50 value means the concentration at which the experimental drug reduces the cell numbers by 50% at the end of the experiment. This value represents the inhibition activity of the test drugs.

Colon, HT-29 = experiment: alamarBlue cancer cell inhibition, HT-29; type: cell-based; details: HT-29, 72 hours
Method: as §1

Lung, A549 = experiment: alamarBlue cancer cell inhibition, A549; type: cell-based; details: A549, 72 hours
Method: as §1

GP7TB cells [2] = experiment: Nuclear DNA fragmentation (agarose gel electrophoresis), GP7TB; type: cell-based, rat; details: 12.5 μg/ml, 48 hours
Method: To understand the GP7TB cell growth inhibition mechanism of the active components and the extracts, GP7TB cells were treated with the extracts and dichotomin at a constant concentration of 12.5 μg/ml for 48 hours. The cellular DNA was extracted and analyzed with agarose gel electrophoresis. […] Therefore, it could be concluded that dichotomin could induce apoptosis of the abovementioned cell lines.

GP7TB cells [3] = experiment: Ex-vivo anti-tumor experiment: pretreated GP7TB cells grafted in F344 rats; parameters: species or system rat; details: GP7TB cells pretreated 12.5 μg/ml 24 hours; 5×10^6 cells S.C.; after three weeks
Method: GP7TB cells (3×10^6 cells each) were incubated in several 10-cm cultural dishes and treated with dichotomin (PK-22-1) or the extract without dichotomin (PK-22-3) at a concentration of 12.5 μg/ml for 24 hours. These cells were collected. GP7TB cells, PK-22-1-treated GP7TB cells, and PK-22-3-treated GP7TB cells (5×10^6 cells each) were separately injected subcutaneously at three different locations on the back of each F344 rat. […] The tumor sizes of rats inoculated with GP7TB cells treated with the extract PK-22-3 without dichotomin were the same as those of rats treated with GP7TB cells (control group).

HepG2 cells = experiment: Nuclear DNA fragmentation (agarose gel electrophoresis), HepG2; type: cell-based, human; details: HepG2, 12.5 μg/ml, 48 hours
GP7TB cells [4] = experiment: In vivo growth inhibition of rat liver tumor by intratumoral injection
Method: The back of each rat was injected subcutaneously with 3×10^6 cells of GP7TB cells. The tumor grows up to 0.3 cm in diameter after about one week. A single dose of dichotomin (PK-22-1, 2.0 mg/kg) or the control buffer (PBS) was directly injected into the tumor once every day for 8 consecutive days. The tumor size was measured, and the cancer cell growth inhibition effects of the control group and dichotomin treated group were compared.

Compound: COc1cccc2c1C(=O)c1c(O)c3c(c(O)c1C2=O)C[C@@](O)(C(=O)CO)C[C@@H]3O[C@H]1C[C@H](N)[C@H](O)[C@H](C)O1 [Adriamycin]
- Amount of Cells (GP7TB cells [1]; 1 μg/ml): 7.80 × 10^4 cells/ml
- Amount of Cells (GP7TB cells [1]; 2 μg/ml): 2.30 × 10^4 cells/ml
- Amount of Cells (GP7TB cells [1]; 4 μg/ml): 2.00 × 10^4 cells/ml
- Amount of Cells (GP7TB cells [1]; 6 μg/ml): 3.00 × 10^4 cells/ml
- Amount of Cells (GP7TB cells [1]; 8 μg/ml): 2.50 × 10^4 cells/ml
- Amount of Cells (GP7TB cells [1]; 10 μg/ml): 2.30 × 10^4 cells/ml
- Amount of Cells (GP7TB cells [1]; 12 μg/ml): 1.60 × 10^4 cells/ml
- IC50 (GP7TB cells [1]; by mass): 1.54 µg/mL
- IC50 (GP7TB cells [1]; molar): 2660 nM

Compound: CO[C@@]12[C@H](COC(N)=O)C3=C(C(=O)C(C)=C(N)C3=O)N1C[C@@H]1N[C@@H]12 [Mitomycin, reference compound]
- IC50 (Liver, Hep 3B; Homo sapiens, Hep3B): 40 nM
- IC50 (Colon, HT-29; Homo sapiens): 330 nM
- IC50 (Lung, A549; Homo sapiens): 160 nM

Compound: (25R)-26-O-beta-D-glucopyranosyl-22-hydroxy-5-ene-furostan-3beta, 26-diol-3-O-alpha-L-rhamnopyranosyl-(1→4)-alpha-L-rhamnopyranosyl-(1→4)-[alpha-L-rhamnopyranosyl-(1→2)]-beta-D-glucopyranoside [PK-22-1]
- IC50 (Liver, Hep 3B): 8500 nM
- IC50 (Colon, HT-29): 7300 nM
- Nuclear DNA fragmentation (GP7TB cells [2]): most notable effects
- Rats that did not form any tumor (GP7TB cells [3]): six rats of the nine
- Tumor size relative to tumors from untreated GP7TB cells (control group) (GP7TB cells [3]): one sixth
- IC50 (Lung, A549): 840 nM
- Amount of Cells (GP7TB cells [1]; 1 μg/ml): 1.30 × 10^5 cells/ml
- Amount of Cells (GP7TB cells [1]; 2 μg/ml): 4.60 × 10^4 cells/ml
- Amount of Cells (GP7TB cells [1]; 4 μg/ml): 2.00 × 10^4 cells/ml
- Amount of Cells (GP7TB cells [1]; 6 μg/ml): 1.10 × 10^4 cells/ml
- Amount of Cells (GP7TB cells [1]; 8 μg/ml): 5.00 × 10^4 cells/ml
- Amount of Cells (GP7TB cells [1]; 10 μg/ml): 3.00 × 10^3 cells/ml
- Amount of Cells (GP7TB cells [1]; 12 μg/ml): 1.60 × 10^3 cells/ml
- Nuclear DNA fragmentation (HepG2 cells): most notable effects
- Tumor volume after injection (Day 8) (GP7TB cells [4]; 2.0 mg/kg into the tumor once daily for 8 days, volume = 0.52 × length × width × height): (0.692 cm^3)
- Apoptosis of cancer cells in tumor (pathological section) (GP7TB cells [4]; 2.0 mg/kg intratumoral, 8 days): exhibited apoptosis
- Tumor size relative to the control group (GP7TB cells [4]; 2.0 mg/kg intratumoral, 8 days, vs PBS): only half the size
- Tumor volume before injection (Day 0) (GP7TB cells [4]; baseline, volume = 0.52 × length × width × height): (0.142 cm^3)
- Growth (folds) (GP7TB cells [4]; tumor volume Day 8 vs Day 0, 2.0 mg/kg intratumoral, PBS control 9.26): 4.87 folds
